In the assay the test system is KM12. Description: Antiproliferative activity against human KM12 cells expressing TPM3-TRKA assessed as reduction in cell viability measured after 3 days by Celltiter-Glo assay. It is filed as functional, cell-based. The conditions noted are these: KM12, 72 h.

In the case of `O=C(CN1CCN(c2cccc(-c3cnc4ccc(N5CCC[C@@H]5c5cccc(F)c5)nn34)n2)CC1)NCCOCCNc1ccc2c(c1)C(=O)N(C1CCC(=O)NC1=O)C2=O` (stereo not given in full), the IC50 came out at 0.9 nM.
The figure for `O=C1CCC(N2C(=O)c3ccc(NCCOCCOCCOCCOCCC(=O)N4CCN(c5ccc(C(=O)Nc6n[nH]c7ccc(Cc8cc(F)cc(F)c8)cc67)c(NC6CCOCC6)c5)CC4)cc3C2=O)C(=O)N1` (stereo not given) is 1.6 nM; for `O=C1CCC(N2C(=O)c3ccc(NCCN4CCN(c5cccc(-c6cnc7ccc(N8CCC[C@@H]8c8cccc(F)c8)nn67)n5)CC4)cc3C2=O)C(=O)N1` (stereo not given in full) it is 3.4 nM.
Next, `O=C(CN1CCN(c2cccc(-c3cnc4ccc(N5CCC[C@@H]5c5cccc(F)c5)nn34)n2)CC1)NCCNc1ccc2c(c1)C(=O)N(C1CCC(=O)NC1=O)C2=O` (stereo not given in full): 0.9 nM.
Next, `O=C(CN1CCN(c2cccc(-c3cnc4ccc(N5CCC[C@@H]5c5cccc(F)c5)nn34)n2)CC1)NCCOCCNc1cccc2c1C(=O)N(C1CCC(=O)NC1=O)C2=O` (stereo not given in full): 3.8 nM; `O=C1CCC(N2C(=O)c3cccc(NCCCC(=O)N4CCN(c5ccc(C(=O)Nc6n[nH]c7ccc(Cc8cc(F)cc(F)c8)cc67)c(NC6CCOCC6)c5)CC4)c3C2=O)C(=O)N1` (stereo not given): 1.5 nM.
In the case of `CN1CCN(c2ccc(C(=O)Nc3n[nH]c4ccc(Cc5cc(F)cc(F)c5)cc34)c(NC3CCOCC3)c2)CC1` [ENTRECTINIB], the IC50 worked out at 4.3 nM.
The figure for `OC1CCN(c2cc(-c3cccc(-c4cnc5ccc(N6CCC[C@@H]6c6cccc(F)c6)nn45)n3)ccn2)CC1` is 46.7 nM.
Next, `O=C1CCC(N2C(=O)c3ccc(N4CC(C(=O)N5CCN(c6cccc(-c7cnc8ccc(N9CCC[C@@H]9c9cccc(F)c9)nn78)n6)CC5)C4)cc3C2=O)C(=O)N1` (stereo not given in full): 2 nM.
`O=C1CCC(N2C(=O)c3ccc(NCCCCC(=O)N4CCN(c5cccc(-c6cnc7ccc(N8CCC[C@@H]8c8cccc(F)c8)nn67)n5)CC4)cc3C2=O)C(=O)N1` (stereo not given in full): the IC50 was 0.9 nM.

Source of the values: ChEMBL document CHEMBL4616688, “PROTAC Compounds Targeting TRK for Use in Cancer Therapeutics” (ACS Med Chem Lett, 2020).
